In brackets after ≈: the same amount, converted by molar mass. Where two headings read alike, the source gives them in different places. Blank lines part the entries; values can stand above or below the compound they belong to.
Assays:
[1] = system: C. albicans ATCC 11651; assay: MIC; assay type: cell-based, Candida albicans
[2] = system: C. albicans OY 003; assay: MIC; assay type: cell-based, Candida albicans
[3] = system: C. albicans KCTC 1940; assay: MIC; assay type: cell-based, Candida albicans
[4] = system: E. floccosum; assay: MIC; assay type: cell-based, Epidermophyton floccosum
[5] = system: C. albicans IFO 1385; assay: MIC; assay type: cell-based, Candida albicans
[6] = system: C. albicans ATCC 28838; assay: MIC; assay type: cell-based, Candida albicans
[7] = system: C. albicans OY 019; assay: MIC; assay type: cell-based, Candida albicans
[8] = system: C. krusei; assay: MIC; assay type: cell-based; settings: Pichia kudriavzevii
[9] = system: C. albicans U.K.; assay: MIC; assay type: cell-based; settings: Candida albicans
[10] = system: C. glabrata; assay: MIC; assay type: cell-based; settings: Nakaseomyces glabratus
[11] = system: C. parapsilosis; assay: MIC; assay type: cell-based; settings: Lodderomyces parapsilosis
[12] = system: C. albicans ATCC 10231; assay: MIC; assay type: cell-based; settings: Candida albicans, ATCC10231
[13] = system: C. glulliermendi; assay: MIC; assay type: cell-based
[14] = system: Epidermophyton floccosum; assay: Antifungal efficacy of creamy formulation against local fungal skin infection; assay type: in vivo, mouse (SKH/1, hairless, male); settings: topical
Method: Specific pathogen free SKH/1 male mouse(Hairless) of which weight is 30-35 g and age is 5 weeks, was reared with sterilized water and feed for 12 night/day in the condition of 21-23° C. and of 50% relative humidity. Five mice were allocated by each group. After skin infection, each mouse was taken in separate cage. The strain of microorganism for infection(Epidermophyton floccosum) was cultivated on a flat medium of SDA(Sabouraud Dextrose Agar) for 5-7 days and after confirmation of macrocomidia, 3 ml of RPMI (Rosewell Park Memorial Institute) 1640 media per each flat medium was added thereto and then scraped well using loop to remove hyphae from media. The floating liquid was suspended briefly and then diluted with RPMI 1640 media to adjust the concentration of hyphae to 2×10^6 CFU/ml. Mouse was anesthetized and marked on back site(lumbosacral area) in a shape of circle of which diameter is 1.5 cm. Then, the inner part of marked skin was scratched with sand paper. The scratched part was covered with a filter paper to preserve inoculated microorganism for a long time and thereby stimulating the skin continuously. 0.2 ml of fungus solution of which concentration is adjusted as described above, was inoculated between the skin and filter paper. 5 Days after the inoculation, the filter paper was removed and the infection of skin was examined. The test formulations, 0.5% creamy formulations of the compounds Nos. 62 and 85, 1.0% creamy formulation of Terbinafine(Lamisile cream) and a placebo was applied on the infected areas in a same amount once a day for 5 days. The clinical evaluation on the change of the infected area in 5 days after the inoculation was performed and expressed numerically from 0 to 4. The daily change of the infected area was checked every day. The result of each group was compared with each other.
1: Mild erythema or small number of skin eruption
2: Well-demarcated erythema with scales or mild skin eruption of infected area
3: Wide area of marked skin eruption, scales, swelling or severe skin eruption with partial swelling and scales
4: The same as those of control, or severe skin eruption in entire lesion
The result was calculated as follows;
T: Average score of clinical evaluation in drug treated area
K: Average score of clinical evaluation in placebo control group
Moreover, the antifungal efficacies of the 0.5% creamy formulation of the compounds Nos. 29, 35, 60, 62, 63 and 85, and 1% creamy formulation of Terbinafme (Lamisil cream), which are measured by applying the above formulations on the skin infected with Epidermophyton floccosum of mouse which is the standard animal for the test of local fungal skin infection, i.e, Specific Pathogen Free SKH/1, are described in the following Table 4.

[15] = Candida albicans, ATCC11651, C. albicans ATCC 11651, read-out: MIC
[16] = Candida albicans, OY003, C. albicans OY 003, read-out: MIC
[17] = Candida albicans, KCTC1940, C. albicans KCTC 1940, read-out: MIC
[18] = Candida albicans, IFO1385, C. albicans IFO 1385, read-out: MIC
[19] = Candida albicans, ATCC28838, C. albicans ATCC 28838, read-out: MIC
[20] = Candida albicans, OY019, C. albicans OY 019, read-out: MIC

- MIC [1, 15]: 1.56 µg/mL
- MIC [2, 16]: 1.56 µg/mL
- MIC [3, 17]: 1.56 µg/mL
- MIC [5, 18]: 3.12 µg/mL
- MIC [6, 19]: 0.78 µg/mL
- MIC [7, 20]: 1.56 µg/mL
Structure (SMILES): COc1ccc2c(Cc3ccc(OC(F)(F)F)cc3)c3[n+](cc2c1OC)CCc1cc2c(cc1-3)OCO2 [compound 31, 13-(4-trifluoromethoxybenzyl) berberine chloride]

- MIC [1, 15]: 0.78 µg/mL
- MIC [2, 16]: 0.78 µg/mL
- MIC [3, 17]: 1.56 µg/mL
- MIC [5, 18]: 3.12 µg/mL
- MIC [6, 19]: 0.78 µg/mL
- MIC [7, 20]: 1.56 µg/mL
Structure (SMILES): COc1cc2c(cc1OC)-c1c(Cc3ccc(C(C)(C)C)cc3)c3ccc(OC)c(OC)c3c[n+]1CC2 [compound 77, 13-(4-t-butylbenzyl)palmatine iodide]

- MIC [1, 15]: 1.56 µg/mL
- MIC [2, 16]: 6.25 µg/mL
- MIC [3, 17]: 1.56 µg/mL
- MIC [5, 18]: 25 µg/mL
- MIC [6, 19]: 3.12 µg/mL
- MIC [7, 20]: 6.25 µg/mL
Structure (SMILES): COc1cc(Cc2c3[n+](cc4c(OC)c(OC)ccc24)CCc2cc4c(cc2-3)OCO4)cc(OC)c1OC [compound 29, 13-(3,4,5-trimethoxybenzyl)berberine chloride]
- Efficacy (%) 0 day later ([14]; 0.5% cream): 0%
- Efficacy (%) 1 day later ([14]; 0.5% cream): 30.0%
- Efficacy (%) 2 day later ([14]; 0.5% cream): 33.4%
- Efficacy (%) 3 day later ([14]; 0.5% cream): 34.6%
- Efficacy (%) 4 day later ([14]; 0.5% cream): 48.0%
- Efficacy (%) 5 day later ([14]; 0.5% cream): 56.4%
- Efficacy (%) 6 day later ([14]; 0.5% cream): 63.0%
- Efficacy (%) 7 day later ([14]; 0.5% cream): 65.8%

- MIC [1, 15]: 6.25 µg/mL
- MIC [2, 16]: 6.25 µg/mL
- MIC [3, 17]: 6.25 µg/mL
- MIC [5, 18]: 25 µg/mL
- MIC [6, 19]: 3.12 µg/mL
- MIC [7, 20]: 12.5 µg/mL
Structure (SMILES): C=Cc1ccc(Cc2c3[n+](cc4c(OC)c(OC)ccc24)CCc2cc4c(cc2-3)OCO4)cc1 [compound 60, 13-(4-vinylbenzyl)berberine chloride]
- Efficacy (%) 0 day later ([14]; 0.5% cream): 0%
- Efficacy (%) 1 day later ([14]; 0.5% cream): 20.0%
- Efficacy (%) 2 day later ([14]; 0.5% cream): 32.0%
- Efficacy (%) 3 day later ([14]; 0.5% cream): 36.0%
- Efficacy (%) 4 day later ([14]; 0.5% cream): 48.6%
- Efficacy (%) 5 day later ([14]; 0.5% cream): 51.5%
- Efficacy (%) 6 day later ([14]; 0.5% cream): 58.6%
- Efficacy (%) 7 day later ([14]; 0.5% cream): 60.5%

- MIC [1, 15]: 12.5 µg/mL
- MIC [2, 16]: 6.25 µg/mL
- MIC [3, 17]: 12.5 µg/mL
- MIC [5, 18]: 25 µg/mL
- MIC [6, 19]: 3.12 µg/mL
- MIC [7, 20]: 12.5 µg/mL
Structure (SMILES): COc1ccc2c(Cc3cccc(Oc4ccccc4)c3)c3[n+](cc2c1OC)CCc1cc2c(cc1-3)OCO2 [compound 58, 13-(3-phenoxybenzyl)berberine chloride]

- MIC ([1]; C. albicans ATCC 11651): 3.125 µg/mL
- MIC ([2]; C. albicans OY 003): 6.25 µg/mL
- MIC ([3]; C. albicans KCTC 1940): 12.5 µg/mL
- MIC ([4]; E. floccosum): > 100 µg/mL
- MIC ([5]; C. albicans IFO 1385): 25 µg/mL
- MIC ([6]; C. albicans ATCC 28838): 3.125 µg/mL
- MIC ([7]; C. albicans OY 019): 0.4 µg/mL
Structure (SMILES): COc1ccc2c(Cc3ccc(C(C)(C)C)cc3)c3[n+](c(O)c2c1OC)CCc1cc2c(cc1-3)OCO2.[Cl-] [compound 64, 8-hydroxy-13-(4-t-butylbenzyl) berberine chloride]

Further lines, the compound ahead of its results:

Structure (SMILES): CCC(C)n1ncn(-c2ccc(N3CCN(c4ccc(OCC5COC(Cn6cncn6)(c6ccc(Cl)cc6Cl)O5)cc4)CC3)cc2)c1=O (stereo not shown) [Itraconazole, reference compound]
- MIC ([1]; Candida albicans, ATCC11651): > 100 µg/mL
- MIC ([2]; Candida albicans, OY003): > 100 µg/mL
- MIC ([3]; Candida albicans, KCTC1940): > 100 µg/mL
- MIC ([4]; Epidermophyton floccosum): 50 µg/mL (≈ 70.9 µM)
- MIC ([5]; Candida albicans, IFO1385): > 100 µg/mL
- MIC ([6]; Candida albicans, ATCC28838): > 100 µg/mL
- MIC ([7]; Candida albicans, OY019): > 100 µg/mL

Structure (SMILES): C[C@@H]1[C@H](O)[C@@H](C)/C=C/C=C/C=C/C=C/C=C/C=C/C=C/[C@H](O[C@@H]2O[C@H](C)[C@@H](O)[C@H](N)[C@@H]2O)C[C@@H]2O[C@](O)(C[C@@H](O)C[C@@H](O)[C@H](O)CC[C@@H](O)C[C@@H](O)CC(=O)O[C@H]1C)C[C@H](O)[C@H]2C(=O)O [Amphotericin B, reference compound]
- MIC ([1]; Candida albicans, ATCC11651): 1.56 µg/mL (≈ 1.69 µM)
- MIC ([2]; Candida albicans, OY003): 0.78 µg/mL (≈ 0.844 µM)
- MIC ([3]; Candida albicans, KCTC1940): 0.78 µg/mL (≈ 0.844 µM)
- MIC [8]: 0.78 µg/mL (≈ 0.844 µM)
- MIC ([4]; Epidermophyton floccosum): 12.5 µg/mL (≈ 13.5 µM)
- MIC ([5]; Candida albicans, IFO1385): 1.56 µg/mL (≈ 1.69 µM)
- MIC ([6]; Candida albicans, ATCC28838): 3.12 µg/mL (≈ 3.38 µM)
- MIC [9]: 3.12 µg/mL (≈ 3.38 µM)
- MIC ([7]; Candida albicans, OY019): 0.4 µg/mL (≈ 0.433 µM)
- MIC [10]: 1.56 µg/mL (≈ 1.69 µM)
- MIC [11]: 3.12 µg/mL (≈ 3.38 µM)
- MIC [12]: 1.56 µg/mL (≈ 1.69 µM)
- MIC [13]: 1.56 µg/mL (≈ 1.69 µM)

Structure (SMILES): CN(C/C=C/C#CC(C)(C)C)Cc1cccc2ccccc12 [Terbinabin, Terbinafine, reference compound]
- Efficacy (%) 0 day later ([14]; 1.0% cream): 0%
- Efficacy (%) 1 day later ([14]; 1.0% cream): 40.0%
- Efficacy (%) 2 day later ([14]; 1.0% cream): 57.9%
- Efficacy (%) 3 day later ([14]; 1.0% cream): 68.4%
- Efficacy (%) 4 day later ([14]; 1.0% cream): 70.2%
- Efficacy (%) 5 day later ([14]; 1.0% cream): 71.4%
- Efficacy (%) 6 day later ([14]; 1.0% cream): 73.4%
- Efficacy (%) 7 day later ([14]; 1.0% cream): 75.7%

Structure (SMILES): Clc1ccc(COC(Cn2ccnc2)c2ccc(Cl)cc2Cl)c(Cl)c1 (stereo not shown) [Miconazole, reference compound]
- MIC ([1]; Candida albicans, ATCC11651): 3.12 µg/mL (≈ 7.51 µM)
- MIC ([2]; Candida albicans, OY003): 1.56 µg/mL (≈ 3.75 µM)
- MIC ([3]; Candida albicans, KCTC1940): 1.56 µg/mL (≈ 3.75 µM)
- MIC [8]: 3.12 µg/mL (≈ 7.51 µM)
- MIC ([4]; Epidermophyton floccosum): 6.25 µg/mL (≈ 15 µM)
- MIC ([5]; Candida albicans, IFO1385): 3.12 µg/mL (≈ 7.51 µM)
- MIC ([6]; Candida albicans, ATCC28838): 0.78 µg/mL (≈ 1.87 µM)
- MIC [9]: > 100 µg/mL
- MIC ([7]; Candida albicans, OY019): 1.56 µg/mL (≈ 3.75 µM)
- MIC [10]: > 100 µg/mL
- MIC [11]: 3.12 µg/mL (≈ 7.51 µM)
- MIC [12]: 6.25 µg/mL (≈ 15 µM)
- MIC [13]: 3.12 µg/mL (≈ 7.51 µM)

Structure (SMILES): COc1ccc2c(Cc3ccc(C)c(C)c3)c3[n+](cc2c1OC)CCc1cc2c(cc1-3)OCO2 [compound 18, 13-(3,4-dimethylbenzyl)berberine chloride]
- MIC [1, 15]: 3.12 µg/mL
- MIC [2, 16]: 6.25 µg/mL
- MIC [3, 17]: 6.25 µg/mL
- MIC [5, 18]: 12.5 µg/mL
- MIC [6, 19]: 3.12 µg/mL
- MIC [7, 20]: 6.25 µg/mL

— patent US6008356A, “Pharmaceutically available protoberberine salts derivatives, and protoberberine salts derivatives, and protoberberine derivatives and salts thereof” (priority 1998, dated 1999)
